From the supplement of paper PMC13380429

Legend:
Conditions in all cases: 72 h
[1] = test system: HepG2; test: relative viability EC50 (midpoint between 100% and the lowest measured viability); higher = less toxic
[2] = test system: Calu-3; test: as above
[3] = test system: U2OS; test: as above
[4] = test system: Vero E6; test: as above
[5] = test system: Caco-2; test: drug sensitivity score (DSS) for viability; higher = more toxic; extreme values may be limits of the assay
[6] = test system: HepG2; test: as above
[7] = test system: Calu-3; test: as above
[8] = test system: U2OS; test: as above
[9] = test system: Vero E6; test: as above
[10] = test system: Caco-2; test: cell viability relative to DMSO; higher = less toxic
[11] = test system: HepG2; test: as above
[12] = test system: Calu-3; test: as above
[13] = test system: U2OS; test: as above
[14] = test system: Vero E6; test: as above
[15] = test system: Caco-2; test: relative viability EC50 (midpoint between 100% and the lowest measured viability); higher = less toxic

## CN1CCN(c2ccc(OC(F)(F)F)c(Nc3ncc4c(n3)-c3c(c(C(N)=O)nn3CCO)CC4)c2)CC1
[1]
  relative viability EC50: 0.139 µM
[2]
  relative viability EC50: > 10 µM
[3]
  relative viability EC50: 0.394 µM
[4]
  relative viability EC50: 0.395 µM
[5]
  drug sensitivity score: 11
[6]
  drug sensitivity score: 18.8
[7]
  drug sensitivity score: 5.1
[8]
  drug sensitivity score: 10
[9]
  drug sensitivity score: 8.8
[10]; 1 nM
  cell viability: 104%
[10]; 10 nM
  cell viability: 94.9%
[10]; 100 nM
  cell viability: 77.3%
[10]; 1000 nM
  cell viability: 52%
[10]; 10000 nM
  cell viability: 62.3%
[11]; 1 nM
  cell viability: 105%
[11]; 10 nM
  cell viability: 95%
[11]; 100 nM
  cell viability: 70.4%
[11]; 1000 nM
  cell viability: 16.7%
[11]; 10000 nM
  cell viability: 15.8%
[12]; 1 nM
  cell viability: 100%
[12]; 10 nM
  cell viability: 105%
[12]; 100 nM
  cell viability: 78.7%
[12]; 1000 nM
  cell viability: 84.9%
[12]; 10000 nM
  cell viability: 84.7%
[13]; 1 nM
  cell viability: 108%
[13]; 10 nM
  cell viability: 103%
[13]; 100 nM
  cell viability: 98.2%
[13]; 1000 nM
  cell viability: 46.5%
[13]; 10000 nM
  cell viability: 41.3%
[14]; 1 nM
  cell viability: 102%
[14]; 10 nM
  cell viability: 112%
[14]; 100 nM
  cell viability: 99.7%
[14]; 1000 nM
  cell viability: 52.4%
[14]; 10000 nM
  cell viability: 48.3%

## CON(C)C(=O)[C@H](O)[C@H](Cc1ccccc1)NC(=O)c1cc2cc(Cl)ccc2[nH]1
[15]
  relative viability EC50: > 10 µM
[1]
  relative viability EC50: > 10 µM
[2]
  relative viability EC50: > 10 µM
[3]
  relative viability EC50: > 10 µM
[4]
  relative viability EC50: > 10 µM
[5]
  drug sensitivity score: 0
[6]
  drug sensitivity score: 0
[7]
  drug sensitivity score: 0
[8]
  drug sensitivity score: 0
[9]
  drug sensitivity score: 0
[10]; 1 nM
  cell viability: 91.9%
[10]; 10 nM
  cell viability: 105%
[10]; 100 nM
  cell viability: 92.9%
[10]; 1000 nM
  cell viability: 100%
[10]; 10000 nM
  cell viability: 90.4%
[11]; 1 nM
  cell viability: 105%
[11]; 10 nM
  cell viability: 95.3%
[11]; 100 nM
  cell viability: 103%
[11]; 1000 nM
  cell viability: 90.5%
[11]; 10000 nM
  cell viability: 90.1%
[12]; 1 nM
  cell viability: 88.7%
[12]; 10 nM
  cell viability: 109%
[12]; 100 nM
  cell viability: 92.7%
[12]; 1000 nM
  cell viability: 106%
[12]; 10000 nM
  cell viability: 118%
[13]; 1 nM
  cell viability: 99.3%
[13]; 10 nM
  cell viability: 102%
[13]; 100 nM
  cell viability: 98.6%
[13]; 1000 nM
  cell viability: 101%
[13]; 10000 nM
  cell viability: 95.9%
[14]; 1 nM
  cell viability: 106%
[14]; 10 nM
  cell viability: 101%
[14]; 100 nM
  cell viability: 103%
[14]; 1000 nM
  cell viability: 94.2%
[14]; 10000 nM
  cell viability: 101%

## CO[C@H]1CC[C@@H](C(=O)c2ccc3nc4c(cc3c2)CCCO4)CC1
[15]
  relative viability EC50: > 10 µM
[1]
  relative viability EC50: > 10 µM
[3]
  relative viability EC50: > 10 µM
[4]
  relative viability EC50: > 10 µM
[5]
  drug sensitivity score: 0
[6]
  drug sensitivity score: 0
[8]
  drug sensitivity score: 0
[9]
  drug sensitivity score: 0
[10]; 1 nM
  cell viability: 90.8%
[10]; 10 nM
  cell viability: 90.3%
[10]; 100 nM
  cell viability: 104%
[10]; 1000 nM
  cell viability: 99.2%
[10]; 10000 nM
  cell viability: 92.7%
[11]; 1 nM
  cell viability: 99.5%
[11]; 10 nM
  cell viability: 107%
[11]; 100 nM
  cell viability: 104%
[11]; 1000 nM
  cell viability: 102%
[11]; 10000 nM
  cell viability: 104%
[13]; 1 nM
  cell viability: 99.8%
[13]; 10 nM
  cell viability: 93.8%
[13]; 100 nM
  cell viability: 104%
[13]; 1000 nM
  cell viability: 97.8%
[13]; 10000 nM
  cell viability: 101%
[14]; 1 nM
  cell viability: 102%
[14]; 10 nM
  cell viability: 103%
[14]; 100 nM
  cell viability: 93.1%
[14]; 1000 nM
  cell viability: 99%
[14]; 10000 nM
  cell viability: 100%

## COc1cc(NC(=O)c2ccc(-c3ccc(Cl)cc3)o2)cc(OC)c1
[15]
  relative viability EC50: > 10 µM
[1]
  relative viability EC50: > 10 µM
[2]
  relative viability EC50: > 10 µM
[4]
  relative viability EC50: > 10 µM
[5]
  drug sensitivity score: 0
[6]
  drug sensitivity score: 0
[7]
  drug sensitivity score: 0
[9]
  drug sensitivity score: 0
[10]; 1 nM
  cell viability: 108%
[10]; 10 nM
  cell viability: 98.9%
[10]; 100 nM
  cell viability: 107%
[10]; 1000 nM
  cell viability: 102%
[10]; 10000 nM
  cell viability: 98.1%
[11]; 1 nM
  cell viability: 105%
[11]; 10 nM
  cell viability: 109%
[11]; 100 nM
  cell viability: 91.9%
[11]; 1000 nM
  cell viability: 114%
[11]; 10000 nM
  cell viability: 102%
[12]; 1 nM
  cell viability: 121%
[12]; 10 nM
  cell viability: 103%
[12]; 100 nM
  cell viability: 109%
[12]; 1000 nM
  cell viability: 101%
[12]; 10000 nM
  cell viability: 99.3%
[14]; 1 nM
  cell viability: 94.5%
[14]; 10 nM
  cell viability: 101%
[14]; 100 nM
  cell viability: 97.2%
[14]; 1000 nM
  cell viability: 97.6%
[14]; 10000 nM
  cell viability: 101%

## COc1ccc(Cl)c(Nc2ncnc3cc(OCC4CCN(C)CC4)c(OC)cc23)c1
[1]
  relative viability EC50: > 10 µM
[2]
  relative viability EC50: 1.42 µM
[3]
  relative viability EC50: > 10 µM
[4]
  relative viability EC50: 1.49 µM
[5]
  drug sensitivity score: 2.9
[6]
  drug sensitivity score: 0
[7]
  drug sensitivity score: 6.7
[8]
  drug sensitivity score: 1.4
[9]
  drug sensitivity score: 6.7
[10]; 1 nM
  cell viability: 93%
[10]; 10 nM
  cell viability: 108%
[10]; 100 nM
  cell viability: 99.1%
[10]; 1000 nM
  cell viability: 89.9%
[10]; 10000 nM
  cell viability: 68.3%
[11]; 1 nM
  cell viability: 99.1%
[11]; 10 nM
  cell viability: 105%
[11]; 100 nM
  cell viability: 90.6%
[11]; 1000 nM
  cell viability: 96.6%
[11]; 10000 nM
  cell viability: 87.7%
[12]; 1 nM
  cell viability: 94.5%
[12]; 10 nM
  cell viability: 102%
[12]; 100 nM
  cell viability: 89.7%
[12]; 1000 nM
  cell viability: 75%
[12]; 10000 nM
  cell viability: 28.5%
[13]; 1 nM
  cell viability: 104%
[13]; 10 nM
  cell viability: 97.2%
[13]; 100 nM
  cell viability: 103%
[13]; 1000 nM
  cell viability: 95.8%
[13]; 10000 nM
  cell viability: 77.7%
[14]; 1 nM
  cell viability: 95.5%
[14]; 10 nM
  cell viability: 99.3%
[14]; 100 nM
  cell viability: 89.7%
[14]; 1000 nM
  cell viability: 76.6%
[14]; 10000 nM
  cell viability: 27.3%

## C[C@@H]1CN(Cc2ccc(F)cc2)CCN1C(=O)COc1ccc(Cl)cc1NC(N)=O
[1]
  relative viability EC50: 0.635 µM
[2]
  relative viability EC50: > 10 µM
[4]
  relative viability EC50: > 10 µM
[5]
  drug sensitivity score: 3.6
[6]
  drug sensitivity score: 10.8
[7]
  drug sensitivity score: 0.1
[8]
  drug sensitivity score: 1.9
[9]
  drug sensitivity score: 0
[10]; 1 nM
  cell viability: 98.2%
[10]; 10 nM
  cell viability: 95.7%
[10]; 100 nM
  cell viability: 92.9%
[10]; 1000 nM
  cell viability: 81.3%
[10]; 10000 nM
  cell viability: 66.6%
[11]; 1 nM
  cell viability: 93.3%
[11]; 10 nM
  cell viability: 101%
[11]; 100 nM
  cell viability: 87.7%
[11]; 1000 nM
  cell viability: 51.9%
[11]; 10000 nM
  cell viability: 19.1%
[12]; 1 nM
  cell viability: 97.1%
[12]; 10 nM
  cell viability: 104%
[12]; 100 nM
  cell viability: 98.1%
[12]; 1000 nM
  cell viability: 104%
[12]; 10000 nM
  cell viability: 85%
[13]; 1 nM
  cell viability: 103%
[13]; 10 nM
  cell viability: 96.1%
[13]; 100 nM
  cell viability: 99.3%
[13]; 1000 nM
  cell viability: 95%
[13]; 10000 nM
  cell viability: 72.8%
[14]; 1 nM
  cell viability: 103%
[14]; 10 nM
  cell viability: 113%
[14]; 100 nM
  cell viability: 93.3%
[14]; 1000 nM
  cell viability: 104%
[14]; 10000 nM
  cell viability: 93%

## Cn1cc(C(F)(F)F)nc1-c1ccc(OCC(O)CNCCOc2ccc(O)c(C(N)=O)c2)cc1 (stereo not given)
[15]
  relative viability EC50: > 10 µM
[1]
  relative viability EC50: > 10 µM
[3]
  relative viability EC50: > 10 µM
[4]
  relative viability EC50: > 10 µM
[5]
  drug sensitivity score: 0.2
[6]
  drug sensitivity score: 0
[8]
  drug sensitivity score: 0
[9]
  drug sensitivity score: 0
[10]; 1 nM
  cell viability: 102%
[10]; 10 nM
  cell viability: 96.6%
[10]; 100 nM
  cell viability: 102%
[10]; 1000 nM
  cell viability: 98.7%
[10]; 10000 nM
  cell viability: 87.4%
[11]; 1 nM
  cell viability: 111%
[11]; 10 nM
  cell viability: 97%
[11]; 100 nM
  cell viability: 122%
[11]; 1000 nM
  cell viability: 94.3%
[11]; 10000 nM
  cell viability: 114%
[13]; 1 nM
  cell viability: 98.7%
[13]; 10 nM
  cell viability: 100%
[13]; 100 nM
  cell viability: 94%
[13]; 1000 nM
  cell viability: 101%
[13]; 10000 nM
  cell viability: 98.1%
[14]; 1 nM
  cell viability: 104%
[14]; 10 nM
  cell viability: 96.4%
[14]; 100 nM
  cell viability: 102%
[14]; 1000 nM
  cell viability: 90.1%
[14]; 10000 nM
  cell viability: 95.7%
